According to US20020065219A1, “Water soluble thiazolyl peptide derivatives” (priority 2000, published 2002):
≈ marks a conversion by molar mass, not a printed value. Read-outs that look alike come from different tables or passages of the source.

Legend:
Assay in all cases: MIC, broth micro dilution assay (NCCLS)
Assay type in all cases: cell-based
[1] = system: Streptococcus pneumoniae A28272; settings: for MIC: Streptococcus pneumoniae, A28272, 18 h, read-out: MIC (μg/mL) against Streptococcus pneumoniae A28272
[2] = system: Enterococcus faecalis A20688; settings: for MIC: Enterococcus faecalis, A20688, 18 h, read-out: MIC (μg/mL) against Enterococcus faecalis A20688
[3] = system: Staphylococcus aureus A15090; settings: for MIC: Staphylococcus aureus, A15090, 18 h, read-out: MIC (μg/mL) against Staphylococcus aureus A15090
[4] = 50% Mueller-Hinton medium and 50% Todd Hewitt medium, 35° C., 18 hours
[5] = Mueller-Hinton medium, 35° C., 18 hours

| Compound | MIC (μg/mL) against Streptococcus pneumoniae A28272 [1, 4] [µg/mL] | MIC (μg/mL) against Enterococcus faecalis A20688 [2, 5] [µg/mL] | MIC (μg/mL) against Staphylococcus aureus A15090 [3, 5] [µg/mL] | also measured |
| --- | --- | --- | --- | --- |
| CO/C(C)=C1/NC(=O)C(C(C)O)NC(=O)c2csc(n2)-c2cc(O)c(-c3nc(C(=O)NC(CSCC(=O)O)C(N)=O)cs3)nc2-c2csc(n2)C2COC(=O)c3c4c5c(cccc5n3O)COC(=O)C(O[C@H]3C[C@](C)(O)[C@H](N(C)C)[C@H](C)O3)C(OC4)C(NC(=O)c3csc1n3)c1nc(cs1)C(=O)N2 (stereo partly drawn) [Example 4] |  |  |  | MIC [1]: 0.125 µg/mL (≈ 0.0817 µM); MIC [2]: 2 µg/mL (≈ 1.31 µM); MIC [3]: 2 µg/mL (≈ 1.31 µM) |
| CO/C(C)=C1/NC(=O)C(C(C)O)NC(=O)c2csc(n2)-c2cc(O)c(-c3nc(C(=O)NC(CSCCN(C)C)C(N)=O)cs3)nc2-c2csc(n2)C2COC(=O)c3c4c5c(cccc5n3O)COC(=O)C(O[C@H]3C[C@](C)(O)[C@H](N(C)C)[C@H](C)O3)C(OC4)C(NC(=O)c3csc1n3)c1nc(cs1)C(=O)N2 (stereo partly drawn) [Example 10] |  |  |  | MIC [1]: 0.015 µg/mL (≈ 0.00972 µM); MIC [2]: 0.25 µg/mL (≈ 0.162 µM); MIC [3]: 0.125 µg/mL (≈ 0.081 µM) |
| CO/C(C)=C1/NC(=O)C(C(C)O)NC(=O)c2csc(n2)-c2cc(O)c(-c3nc(C(=O)NC(CNCCCCN)C(N)=O)cs3)nc2-c2csc(n2)C2COC(=O)c3c4c5c(cccc5n3O)COC(=O)C(O[C@H]3C[C@](C)(O)[C@H](N(C)C)[C@H](C)O3)C(OC4)C(NC(=O)c3csc1n3)c1nc(cs1)C(=O)N2 (stereo partly drawn) [Example 11] | 0.5 (≈ 0.328 µM) | 8.0 (≈ 5.24 µM) | 2.0 (≈ 1.31 µM) |  |
| CO/C(C)=C1/NC(=O)C(C(C)O)NC(=O)c2csc(n2)-c2cc(O)c(-c3nc(C(=O)NC(CNCCN(CCN)CCN)C(N)=O)cs3)nc2-c2csc(n2)C2COC(=O)c3c4c5c(cccc5n3O)COC(=O)C(O[C@H]3C[C@](C)(O)[C@H](N(C)C)[C@H](C)O3)C(OC4)C(NC(=O)c3csc1n3)c1nc(cs1)C(=O)N2 (stereo partly drawn) [Example 12] | 0.5 (≈ 0.316 µM) | 4.0 (≈ 2.53 µM) | 2.0 (≈ 1.26 µM) |  |
| CO/C(C)=C1/NC(=O)C(C(C)O)NC(=O)c2csc(n2)-c2cc(O)c(-c3nc(C(=O)NC(CN4CCCC4)C(N)=O)cs3)nc2-c2csc(n2)C2COC(=O)c3c4c5c(cccc5n3O)COC(=O)C(O[C@H]3C[C@](C)(O)[C@H](N(C)C)[C@H](C)O3)C(OC4)C(NC(=O)c3csc1n3)c1nc(cs1)C(=O)N2 (stereo partly drawn) [Example 15] |  |  |  | MIC (μg/mL) against Streptococcus pneumoniae A28272 [1]: 0.015 µg/mL (≈ 0.00994 µM); MIC (μg/mL) against Enterococcus faecalis A20688 [2]: 0.5 µg/mL (≈ 0.331 µM); MIC (μg/mL) against Staphylococcus aureus A15090 [3]: 0.06 µg/mL (≈ 0.0398 µM) |
| CO/C(C)=C1/NC(=O)C(C(C)O)NC(=O)c2csc(n2)-c2cc(O)c(-c3nc(C(=O)NC(CNCCNC(C)=O)C(N)=O)cs3)nc2-c2csc(n2)C2COC(=O)c3c4c5c(cccc5n3O)COC(=O)C(O[C@H]3C[C@](C)(O)[C@H](N(C)C)[C@H](C)O3)C(OC4)C(NC(=O)c3csc1n3)c1nc(cs1)C(=O)N2 (stereo partly drawn) [Example 16] | 0.125 (≈ 0.0812 µM) | 4.0 (≈ 2.6 µM) | 1.0 (≈ 0.649 µM) |  |
| CO/C(C)=C1/NC(=O)C(C(C)O)NC(=O)c2csc(n2)-c2cc(O)c(-c3nc(C(=O)NC(CNCCN(C)C)C(N)=O)cs3)nc2-c2csc(n2)C2COC(=O)c3c4c5c(cccc5n3O)COC(=O)C(O[C@H]3C[C@](C)(O)[C@H](N(C)C)[C@H](C)O3)C(OC4)C(NC(=O)c3csc1n3)c1nc(cs1)C(=O)N2 (stereo partly drawn) [Example 17] | 0.03 (≈ 0.0197 µM) | 4.0 (≈ 2.62 µM) | 2.0 (≈ 1.31 µM) |  |
| CO/C(C)=C1/NC(=O)C(C(C)O)NC(=O)c2csc(n2)-c2cc(O)c(-c3nc(C(=O)NC(CN(C)CCc4ccccn4)C(N)=O)cs3)nc2-c2csc(n2)C2COC(=O)c3c4c5c(cccc5n3O)COC(=O)C(O[C@H]3C[C@](C)(O)[C@H](N(C)C)[C@H](C)O3)C(OC4)C(NC(=O)c3csc1n3)c1nc(cs1)C(=O)N2 (stereo partly drawn) [Example 20] | 0.005 (≈ 0.00318 µM) | 0.25 (≈ 0.159 µM) | 0.125 (≈ 0.0794 µM) |  |
